From patent US6413974B1, “6,9,-disubstituted 2-[trans-(4-aminocyclohexyl) amino] purines” (Aventis Pharmaceuticals Inc., priority 1998, dated 2002)
Where “and” joins values, the source holds several entries; their conditions need not be identical. Equal entries are not always repeated. Structures can show the parent of a compound that is named as a salt. Where two headings read alike, the source gives them in different places.

Experiments:
cdk2/cyclin E = biological target: T1, cdk2/cyclin E (Homo sapiens, UniProt P24941); assay: Cyclin-Dependent Kinase 2 Assay (cdk-2 inhibition); type: biochemical; settings: GST-Rb substrate, 30 min at 30° C.
T1 construct: made in house; host or cells: insect cells (baculovirus co-infection)
Experimental: (§1) The transformed bacteria were grown overnight to saturation, then diluted in YT broth and incubated at 37° C. for 2 h. The protein was induced by incubation with 0.1 mM isopropylthioglycoside for 3 h. Following sedimentation by centrifugation, the cells were lysed by sonication in STE buffer ([…] NaCl, 10 mM Tris, pH 8.0, 1 mM EDTA) containing 10% sarkosyl. Particulate matter was removed by centrifugation and the lysate was incubated with glutathione-Sepharose at 4° C. The beads were washed with kinase buffer and then quantitation of Coomassie blue-stained proteins separated by SDS-PAGE was performed using a protein standard of known concentration.
(§2) Pre-wet Millipore Multiscreen 96-well filter plates (0.65 μm Durapore filters) with 200 μl kinase buffer (50 mM HEPES, pH 7.5, 10 mM MgCl2, 1 mM EGTA). GST-Rb (0.5 μg) bound to glutathione-Sepharose beads is added in 50 μl per well and the solution removed by application of vacuum. […] Add 0.1 μg cdk4/cyclin D1 (insect cell lysate) to initiate assay. Incubate 30 min at 37° C. Terminate reaction by filtration on Millipore Vacuum Manifold. Wash four times with TNEN (20 mM Tris, pH 8.0, 100 mM Na Cl, 1 mM EDTA, 0.5% nonidet P-40). After drying the plates at room temperature, the filter plates were placed in adapter plates (Packard) and 40 μl of Microscint-O® (Packard) was added to each well. Top Seal A film was used to cover the plates before counting in a Top Count Scintillation Counter.
GST-Rb as described above for cdk4/cyclin D1
Assay conditions for cdk2/cyclin E were identical to those for cdk4/cyclin D1 including the substrate. The concentration of recombinant cdk2/cyclin E in the assay was 0.1 μg per 100 μl assay. Incubation was for 30 min at 30° C.

cdk4/cyclin D1 = biological target: T2, cdk4/cyclin D1 (Homo sapiens, UniProt P11802); assay: Cyclin-dependent kinase 4 Assay; type: biochemical; settings: cdk4/cyclin D1, GST-Rb substrate, 10 μM ATP, 30 min at 37° C.; read-out: CDK4 Inhibition IC50
T2 construct: made in house; host or cells: Sf9 insect cells (Bac-to-Bac baculovirus, pFastBac)
Experimental: The IC50 values for cdk-4 inhibition were by the following method:
as §1
The cDNA for human cyclin D1 was cloned by RT PCR using […] from MCF-7 cells. […] Bacmid DNA was used to transfect Sf9 insect cells to produce recombinant virus. Following plaque purification of the virus, the viral preparations were amplified until high titer stocks were acheived.
Lysates were prepared by lysis of Sf9 cells coinfected with cdk4 and cyclin D1 in 50 mM HEPES, pH 7.5, 10 mM MgCl2, 1 mM DTT, 0.1 mM phenylmethylsulfonyl fluoride, 5 μg/ml aprotinin, and 5 μg/ml leupeptin using a PARR bomb under 500 p.s.i nitrogen pressure for 5 min at 4° C. Insoluble material was sedimented at 10,000×g for 20 min at 4° C. Glycerol was added to the supernatant to 10% and stored at −80° C. in aliquots.
as §2

A549 = assay: In vitro tumor cell proliferation, A549; type: cell-based, human; settings: read-out: In vitro Tumor Cell Proliferation (IC50, μM) Lung A549
Experimental: (§3) The proliferation of tumor cells was measured using a sulforhodamine B assay as described in Skehan, P., et al., J. Natl. Cancer Inst. […] Tumor cells were harvested with trypsin-EDTA, cells that excluded trypan blue were counted, added to 96-well plates and incubated overnight at 37° C. Drug was added to the wells following dilution in culture medium. Three days later, the medium was removed and replenished with medium containing fresh drug and incubated an additional 4 days. The cells were then fixed with 0.1 ml 10% trichloroacetic acid for 60 min at 4° C. The plates were rinsed five times with tap water, air-dried and stained for 30 min with 0.4% sulforhodamine B in 1% acetic acid and air-dried.
(§4) Alternatively, the CyQUANT cell proliferation assay was used to quantify tumor cell proliferation. Tumor cells were harvested with trypsin-EDTA, cells that excluded trypan blue were counted, added to 96-well plates and incubated overnight at 37° C. Drug was added to the wells following dilution in culture medium. Three days later the medium was removed and the plates frozen at −80° C. for at least 30 minutes.

HT-29 = assay: In vitro tumor cell proliferation, HT-29; type: cell-based, human; settings: read-out: In vitro Tumor Cell Proliferation (IC50, μM) Colon HT-29 (converted)
Experimental: as §3, §4
HT-29 is a human colon adenocarcinoma, moderately well-differentiated grade II (HTB 38);

MDA-MB-435 = assay: In vitro tumor cell proliferation, MDA-MB-435; type: cell-based, human; settings: read-out: In vitro Tumor Cell Proliferation (IC50, μM) Breast MDA-MB-435
Experimental: as §3, §4

PC-3 = assay: In vitro tumor cell proliferation, PC-3; type: cell-based, human; settings: read-out: In vitro Tumor Cell Proliferation (IC50, μM) Prostate PC-3
Experimental: as §3, §4

DMS-114 = assay: In vitro tumor cell proliferation, DMS-114; type: cell-based, human; settings: read-out: In vitro Tumor Cell Proliferation (IC50, μM) Lung DMS-114
Experimental: as §3, §4

Colo-205 = assay: In vitro tumor cell proliferation, Colo-205; type: cell-based, human; settings: read-out: In vitro Tumor Cell Proliferation (IC50, μM) Colon Colo-205
Experimental: as §3, §4

DU 145 = assay: In vitro tumor cell proliferation, DU 145; type: cell-based, human; settings: read-out: In vitro Tumor Cell Proliferation (IC50, μM) Prostate DUI45
Experimental: as §3, §4

MDA-MB-231 = assay: In vitro tumor cell proliferation, MDA-MB-231; type: cell-based, human; settings: read-out: In vitro Tumor Cell Proliferation (IC50, μM) Breast MDA-MB-231
Experimental: as §3, §4

[1] = Homo sapiens, A549, values marked * (mark not explained)
[2] = values marked * (mark not explained), dihydrochloride
[3] = Homo sapiens, HT-29, values marked * (mark not explained)
[4] = Homo sapiens, MDA-MB-435, values marked * (mark not explained)
[5] = Homo sapiens, PC-3, values marked * (mark not explained)
[6] = Homo sapiens, DMS-114, values marked * (mark not explained)
[7] = Homo sapiens, COLO 205, values marked * (mark not explained)
[8] = Homo sapiens, DU-145, values marked * (mark not explained)
[9] = Homo sapiens, MDA-MB-231, values marked * (mark not explained)

T2 sequence (P11802 whole entry): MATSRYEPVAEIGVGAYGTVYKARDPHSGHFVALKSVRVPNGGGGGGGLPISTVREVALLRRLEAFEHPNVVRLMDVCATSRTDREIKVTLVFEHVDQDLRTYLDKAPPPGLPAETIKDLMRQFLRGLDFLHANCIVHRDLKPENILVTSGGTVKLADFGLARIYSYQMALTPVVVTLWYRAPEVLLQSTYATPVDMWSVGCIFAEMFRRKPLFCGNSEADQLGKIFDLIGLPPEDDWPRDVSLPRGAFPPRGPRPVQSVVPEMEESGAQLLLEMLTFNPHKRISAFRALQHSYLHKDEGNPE
T2 sequence (P24385 whole entry partner): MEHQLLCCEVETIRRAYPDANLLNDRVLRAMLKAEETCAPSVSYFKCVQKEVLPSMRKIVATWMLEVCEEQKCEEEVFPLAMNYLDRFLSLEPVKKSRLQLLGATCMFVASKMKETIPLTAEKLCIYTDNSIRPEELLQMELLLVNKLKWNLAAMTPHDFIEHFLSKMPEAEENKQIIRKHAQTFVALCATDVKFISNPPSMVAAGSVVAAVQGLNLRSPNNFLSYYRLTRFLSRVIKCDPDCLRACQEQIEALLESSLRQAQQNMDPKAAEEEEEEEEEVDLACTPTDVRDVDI

SMILES | IC50 (cdk2/cyclin E) | IC50 (cdk4/cyclin D1) | IC50 (A549; [1]) | IC50 (A549; [2]) | IC50 (HT-29; [3]) | IC50 (MDA-MB-435; [4]) | IC50 (PC-3; [5]) | IC50 (PC-3; [2]) | IC50 (DMS-114; [6]) | IC50 (DMS-114; [2]) | IC50 (Colo-205; [7]) | IC50 (Colo-205; [2]) | IC50 (DU 145; [8]) | IC50 (MDA-MB-231; [9]) | IC50 (MDA-MB-435; [2]) | IC50 (DU 145; [2]) | IC50 (MDA-MB-231; [2]) | IC50 (HT-29; [2])
CC(CCCC(C)(C)O)Nc1nc(N[C@H]2CC[C@H](N)CC2)nc2c1ncn2C1CCCC1 (relative stereo) [Example 54, 2-[Trans-(4-aminocyclohexyl)amino]-6-[(5-hydroxy-1,5-dimethylhexyl)amino]-9-cyclopentylpurine dihydrochloride] | 85 nM | 2000 nM and 1200 nM | 0.68 µM | 0.63 µM | 1 µM | 1.6 µM | 0.83 µM | 0.8 µM | 0.78 µM | 0.61 µM | 0.63 µM | 0.58 µM | 1.4 µM | 1 µM |  |  |  | 
NCCCCNc1nc(N[C@H]2CC[C@H](N)CC2)nc2c1ncn2C1CCCC1 [Example 5, 2-[Trans-(4-aminocyclohexyl)amino]-6-[(4-aminobutyl)amino]-9-cyclopentylpurine dihydrochloride] | 42 nM | 290 nM and 380 nM | 1.6 µM | 1.1 µM |  | 5.7 µM | 5.7 µM | 7.2 µM | 3.1 µM | 2.8 µM | 2.4 µM | 1.6 µM | 2.4 µM | 2.9 µM | 4.4 µM | 2.8 µM | 3.2 µM | 
N[C@H]1CC[C@H](Nc2nc(NCCc3cccnc3)c3ncn(C4CCCC4)c3n2)CC1 [Example 7, 2-[Trans-(4-aminocyclohexyl)amino]-6-[(3-pyridyl)-2-ethylamino]-9-cyclopentylpurine dihydrochloride] | 60 nM | 300 nM | 15 µM |  |  | 11 µM | 8 µM | 4.6 µM | 16 µM | 24 µM | 6.3 µM | 7.8 µM | 10 µM | 7.9 µM |  | 9 µM | 7 µM | 
N[C@H]1CC[C@H](Nc2nc(NCc3ccncc3)c3ncn(C4CCCC4)c3n2)CC1 [Example 8, 2-[Trans-(4-aminocyclohexyl)amino]-6-[(4-pyridyl)methylamino]-9-cyclopentylpurine dihydrochloride] | 110 nM | 700 nM and 800 nM | 7.7 µM | 5.9 µM | 7.6 µM | 10 µM | 4.6 µM | 5.4 µM | 9.9 µM | 7.4 µM | 4.6 µM | 4.1 µM | 5.8 µM | 5.3 µM |  | 6.5 µM | 8.1 µM | 11 µM
N[C@H]1CC[C@H](Nc2nc(NCc3nc4ccccc4[nH]3)c3ncn(C4CCCC4)c3n2)CC1 [Example 19, 2-[Trans-(4-aminocyclohexyl)amino]-6-[(2-benzimidazolyl)methylamino]-9-cyclopentylpurine dihydrochloride] | 350 nM | 50 nM and 100 nM |  |  | 2.7 µM | 2.7 µM | 1.2 µM | 1.5 µM | 2.7 µM | 2.9 µM | 1.3 µM | 1.4 µM | 6.4 µM | 1.9 µM | 2.3 µM | 6.1 µM | 1.7 µM | 2 µM
CCCCCNc1nc(N[C@H]2CC[C@H](N)CC2)nc2c1ncn2C1CCCC1 [Example 26, 2-[Trans-(4-aminocyclohexyl)amino]-6-(pentylamino)-9-cyclopentylpurine dihydrochloride] | 80 nM and 36 nM | 510 nM and 460 nM |  |  | 1.4 µM | 2.2 µM | 1 µM | 1.4 µM | 1.8 µM | 1 µM | 1.3 µM | 1.5 µM | 0.73 µM | 1.2 µM | 2.3 µM | 0.95 µM | 1.4 µM | 1.6 µM
N[C@H]1CC[C@H](Nc2nc(NCCCO)c3ncn(C4CCCC4)c3n2)CC1 [Example 53, 2-[Trans-(4-aminocyclohexyl)amino]-6-[(3-hydroxypropyl)amino]-9-cyclopentylpurine dihydrochloride] | 13 nM and 26 nM | 290 nM and 94 nM and 75 nM | 12 µM | 9.3 µM |  | 12 µM | 3.4 µM | 5.9 µM | 16 µM | 17 µM | 5.1 µM | 5 µM | 7.5 µM | 6.7 µM | 11 µM | 11 µM | 8.5 µM | 
NCCCCCCCCNc1nc(N[C@H]2CC[C@H](N)CC2)nc2c1ncn2C1CCCC1 [Example 56, 2-[Trans-(4-amninocyclohexyl)amino]-6-[(8-aminooctyl)amino]-9-cyclopentylpurine dihydrochloride] | 115 nM | 860 nM | 2.8 µM | 2.5 µM | 2.5 µM | 3.8 µM | 2.7 µM | 4.4 µM |  |  | 3.5 µM | 6.3 µM | 4.9 µM | 2.2 µM | 3.1 µM | 3.6 µM | 3.5 µM | 3.4 µM
